Experimental data as given in patent publication US9018216B2, “Solid forms of (R)-2-(5-(2-(3-ethylureido)-6-fluoro-7-(tetrahydrofuran-2-yl)-1H-benzo[d]imidazol-5-yl)pyrimidin-2-yl)propan-2-yl dihydrogen phosphate and salts thereof” (priority 2012, dated 2015).
Where “and” joins values, the source holds several entries; their conditions need not be identical. Equal entries are not always repeated. Where two headings read alike, the source gives them in different places.

What was measured:
[1] = Monkey oral pharmacokinetic study; assay type: in vivo, cynomolgus monkeys; settings: 0.5% MC, plasma analyte
Description: (§1) Plasma concentration vs. time data was subjected to noncompartmental pharmacokinetic (PK) analysis.

[2] = Rat IV pharmacokinetic study; settings: D5W, plasma analyte
[3] = system: M. tuberculosis ATCC 35801 (strain Erdman); test: Mouse M. tuberculosis (Erdman) 28 day lung infection model; assay type: in vivo, M. tuberculosis; host Balb/c mice; settings: 28 days; for Log Reduction vs. Early Control / Median Lung Burden / Log Reduction vs. Late Control: Table 23b
[4] = Monkey IV pharmacokinetic study; settings: Compound W IV 5 mg/kg, D5W, plasma analyte
[5] = Rat oral pharmacokinetic study; assay type: in vivo, Sprague Dawley rats; settings: plasma analyte; for AUC: male, Sprague Dawley, plasma, po, read-out: AUCextrap
Description: as §1

[6] = Pharmacokinetic studies: in vivo conversion of prodrug; settings: in at least rats, dogs and monkeys
Procedure: The pharmacokinetic parameters of selected compounds of this invention were determined in the experiments described below. General analytic procedures and specific experimental protocols were employed as follows: […]

[7] = system: Enterococcus faecium ATCC 49624; test: Gyrase MIC determination using microdilution broth method (Protocol 1); assay type: cell-based
[8] = Vapor sorption (DVS) of free forms; assay type: physicochemical
Procedure: In one embodiment, the hydrated Free Form A may be converted to anhydrous Free Form B of the compound by equilibrating in a low humidity environment. […] Upon dehydrating hydrated Free Form A, a corresponding anhydrous Free Form B may be obtained. […] Whether the hydrated Free Form A could absorb additional water is not known at this time. […] At 25° C., the critical humidity for conversion is around 40% (see vapor sorption experiment). […] Humidity was then changed by 5% increments until 95% RH was achieved using the same limiting conditions. The reverse steps were executed on the desorption side from 95% down to 5% RH, while always maintaining 25° C. temperature.

[9] = Stability of the solid forms (net increase in total impurities at 40 C/30% RH); assay type: physicochemical
Haemophilus influenzae = test: Gyrase MIC determination against Gram negatives using microdilution broth method (Protocol 2); assay type: cell-based; settings: Haemophilus influenzae Rd0894 (AcrA-)
Procedure: (§2) Compounds of this invention were tested for antimicrobial activity by susceptibility testing in liquid media. […] The specific protocols used were as follows:
(§3) Protocol 2: Gyrase MIC Determination of Compounds Against Gram Negatives Using Microdilution Broth Method
(§4) Strains (MHII Media for all; Broth and Agar): • 1. Escherichia coli AG100 WT • 2. Escherichia coli AG100 tolC • 3. […] Haemophilus influenzae Rd0894 (AcrA−)
(§5) Inoculum Prep: • 1. Using the BBL Prompt kit, picked 5 big or 10 small, well separated colonies from cultures grown on agar medium and inoculated 1 mL sterile saline that came with the kit. • 2. Vortexed the wells for ˜30 s to give a suspension of ˜10^8 cells/mL. Actual density could be confirmed by plating out dilutions of this suspension. • 3. Diluted the suspension 1/100 by transferring 0.15 mL of cells into 15 mL (˜10^6 cells/mL) sterile broth (see below) for each plate of compounds tested, swirled to mix. […] Used 50 μl cells (˜5×10^4 cells) to inoculate each microtiter well containing 50 μl of the drug diluted in broth (see below).
(§6) Drug Dilutions, Inoculation, MIC Determination: • 1. […] Diluted drug/compound stocks to 200× desired final concentration in 50 μL DMSO. If starting concentration of MICs was 8 μg/mL final concentration, then required 6.25 μL of stock+43.75 μL DMSO. Each 200× stock was placed in a separate row of column 1 of a new 96 well microtiter plate. • 3. Added 25 μL of DMSO to columns 2-12 of all rows of the microtiter plate containing 200× compound stocks and serially diluted 25 μL from column 1 through column 11, changed tips after each column. i.e. 25 μL compound+25 μL DMSO=2× dilution. Left “no compound” DMSO well at the end of the series for control. • 4. For each strain tested, prepared two microtiter plates with 50 μL of MHII broth using a Matrix pipettor. • 5. Transferred 0.5 μL of each dilution (w/Matrix auto-pipettor) to 50 μL of medium/microtiter well prior to the addition of 50 μl of cells. The usual starting concentration of compound was 8 μg/mL after the 1/200 dilution into medium+cells−compound concentrations decreased in 2× steps across the rows of a microtiter plate. All MICs were done in duplicate. • 6. All wells were inoculated with 50 μl of diluted cell suspension (see above) to a final volume of 100 μl. • 7. After inoculum was added, each well was mixed thoroughly with a manual multichannel pipettor; same tips were used going from low to high concentration of drug in the same microtiter plate. • 8. Plates were incubated at 37° C. for at least 18 hours. • 9.
(§7) Examined the test plates after the correct incubation time and read the MIC endpoint at the concentration where a marked reduction occurred in the appearance of growth on the test plate as compared to that of growth on the positive control plates.

Escherichia coli AG100 = test: as above; assay type: cell-based
Procedure: as §2, §3, §4, §5, §6, §7

[10] = system: Staphylococcus aureus ATCC 29213; test: microbe, parasite or virus in culture; assay type: cell-based; settings: Protocol 1
E. coli DNA Topo IV = test: E. coli enzyme ATPase inhibition assay (Table 27b); assay type: biochemical; settings: E. coli DNA Topo IV (table title), solid forms
S. aureus DNA gyrase = S. aureus DNA gyrase (Staphylococcus aureus, UniProt P0A0K8); test: DNA gyrase ATPase assay; settings: solid forms, Table 27a
S. aureus DNA Topo IV = S. aureus DNA Topo IV (Staphylococcus aureus, UniProt P0C1S7); test: DNA Topo IV ATPase assay; assay type: biochemical; settings: solid forms, Table 27c
Procedure: The conversion of ATP to ADP by S. aureus TopoIV enzyme was coupled to the conversion of NADH to NAD+, and the progress of the reaction was measured by the change in absorbance at 340 nm. TopoIV (64 nM) was incubated with the selected compound (3% DMSO final) in buffer for 10 minutes at 30° C. The buffer consisted of 100 mM Tris 7.5, 1.5 mM MgCl2, 200 mM K·Glutamate, 2.5 mM phosphoenol pyruvate, 0.2 mM NADH, 1 mM DTT, 5 ng/mL linearized DNA, 50 ng/mL BSA, 30 ng/mL pyruvate kinase, and 10 ng/mL lactate dehyrodgenase (LDH). The reaction was initiated with ATP, and rates were monitored continuously for 20 minutes at 30° C. on a Molecular Devices SpectraMAX plate reader. The inhibition constant, Ki, and the IC50 were determined from plots of rate vs. concentration of selected compound fit to the Morrison Equation for tight binding inhibitors.

[11] = system: Enterococcus faecalis ATCC 29212; test: Gyrase MIC determination using microdilution broth method (Protocol 1); assay type: cell-based; settings: Enterococcus faecalis ATCC 29212, with 3% Laked Horse Blood
[12] = Staphylococcus aureus ATCC 29213
[13] = Enterococcus faecium ATCC 49624 with 3% Laked Horse Blood
[14] = Staphylococcus aureus ATCC 29213 with 50% Mouse Serum

CCNC(=O)Nc1nc2cc(-c3cnc(C(C)(C)OP(=O)([O-])[O-])nc3)c(F)c([C@H]3CCCO3)c2[nH]1.[Na+].[Na+] [Compound W, disodium (R)-2-(5-(2-(3-ethylureido)-6-fluoro-7-(tetrahydrofuran-2-yl)-1H-benzo[d]imidazol-5-yl)pyrimidin-2-yl)propan-2-yl phosphate]
AUCextrap ([1]; Compound W PO 100 mg/kg): 437 ng·h/mL
t1/2 ([1]; Compound W PO 100 mg/kg): 5.31 h
t1/2 ([1]; Compound W PO 300 mg/kg): 13.15 h
AUCextrap ([2]; Compound W IV 1 mg/kg): 419 ng·h/mL
Cl_obs ([2]; Compound W IV 1 mg/kg): 46.7 mL/min/kg
Cmax/C0 ([2]; Compound W IV 1 mg/kg): 4800 ng/mL
Vss_obs ([2]; Compound W IV 1 mg/kg): 0.38 L/kg
AUCextrap ([2]; Compound W IV 5 mg/kg): 1120 ng·h/mL
Cl_obs ([2]; Compound W IV 5 mg/kg): 84.6 mL/min/kg
Cmax/C0 ([2]; Compound W IV 5 mg/kg): 9030 ng/mL
Vss_obs ([2]; Compound W IV 5 mg/kg): 5.8 L/kg
Log Reduction vs. Early Control ([3]; 10 mg/kg BID oral gavage): 0.64 Log
Median Lung Burden ([3]; 10 mg/kg BID oral gavage): 4.34 Log cfu/lungs
Log Reduction vs. Late Control ([3]; 10 mg/kg BID oral gavage, phosphate): 0.02 Log
Log Reduction vs. Early Control ([3]; 30 mg/kg BID oral gavage): 1.98 Log
Log Reduction vs. Late Control ([3]; 30 mg/kg BID oral gavage): 1.36 Log
Median Lung Burden ([3]; 30 mg/kg BID oral gavage): 3.00 Log cfu/lungs
Log Reduction vs. Early Control ([3]; 100 mg/kg BID oral gavage): 2.63 Log
Median Lung Burden ([3]; 100 mg/kg BID oral gavage): 2.35 Log cfu/lungs
Log Reduction vs. Late Control ([3]; 100 mg/kg BID oral gavage, phosphate): 2.02 Log and 2.01 Log
reduction of bacterial burdens versus the early control ([3]; doses of 10, 30, and 100 mg/kg BID): 0.64-2.63 logs
AUCextrap [4]: 5830 ng·h/mL
t1/2 [4]: 5.35 h
t1/2 ([5]; Compound W oral 30 mg/kg, 0.5% MC): 3.1 h
t1/2 ([5]; Compound W oral 100 mg/kg, 0.5% MC): 7.2 h
t1/2 ([5]; Compound W oral 300 mg/kg, 0.5% MC): 11.3 h
AUC ([5]; 30 mg/kg, Compound W oral 30 mg/kg, 0.5% MC): 58 ng·h/mL
AUC ([5]; 100 mg/kg, Compound W oral 100 mg/kg, 0.5% MC): 66 ng·h/mL
AUC ([5]; 300 mg/kg, Compound W oral 300 mg/kg, 0.5% MC): 464 ng·h/mL
AUC ([5]; 300 mg/kg, Compound W oral 300 mg/kg, 20% CAPT, 1% HPMC-AS, 1% PVP): 4270 ng·h/mL
in vivo conversion of prodrug into parent [6]: converted in vivo into Compound 23

CCNC(=O)Nc1nc2cc(-c3cnc(C(C)(C)OP(=O)(O)O)nc3)c(F)c([C@H]3CCCO3)c2[nH]1 [Form A, (R)-2-(5-(2-(3-ethylureido)-6-fluoro-7-(tetrahydrofuran-2-yl)-1H-benzo[d]imidazol-5-yl)pyrimidin-2-yl)propan-2-yl dihydrogen phosphate]
MIC ([7]; ATCC49624, Enterococcus faecium ATCC 49624 with 3% Laked Horse Blood, read-out: MIC): 4 µg/mL
water content of fully hydrated form (vapor sorption isotherm) ([8]; vapor sorption, 25° C.): about 6 weight %
Net % increase in total impurities ([9]; 15 days): 0.07%
MIC (Haemophilus influenzae): 0.25 µg/mL
MIC (Escherichia coli AG100; Escherichia coli AG100 WT): >8 µg/mL
MIC (Escherichia coli AG100; Escherichia coli AG100 tolC): >8 µg/mL
MIC [10, 12]: 4 µg/mL
MIC ([10]; Staphylococcus aureus, ATCC29213, Staphylococcus aureus ATCC 29213 with 50% Mouse Serum, read-out: MIC): 1 µg/mL
Ki (E. coli DNA Topo IV): 11 nM
Ki (S. aureus DNA gyrase): 26 nM
Ki (S. aureus DNA Topo IV): < 4 nM

CCNC(=O)Nc1nc2cc(-c3cnc(C(C)(C)OP(=O)(O)O)nc3)c(F)c([C@H]3CCCO3)c2[nH]1 [Form B, (R)-2-(5-(2-(3-ethylureido)-6-fluoro-7-(tetrahydrofuran-2-yl)-1H-benzo[d]imidazol-5-yl)pyrimidin-2-yl)propan-2-yl dihydrogen phosphate]
MIC [7, 13]: 4 µg/mL
critical humidity for conversion of Free Form B back to Free Form A ([8]; At 25° C.): around 40%
Net % increase in total impurities ([9]; 17 days, listed as B): 0.16%
MIC (Haemophilus influenzae): 0.25 µg/mL
MIC (Escherichia coli AG100; Escherichia coli AG100 WT): 2 µg/mL
MIC (Escherichia coli AG100; Escherichia coli AG100 tolC): 2 µg/mL
MIC [10, 12]: 4 µg/mL
MIC [10, 14]: 1 µg/mL
Ki (E. coli DNA Topo IV): < 6 nM
Ki (S. aureus DNA gyrase): < 25 nM
Ki (S. aureus DNA Topo IV): 10 nM

CCNC(=O)Nc1nc2cc(-c3cnc(C(C)(C)OP(=O)(O)O)nc3)c(F)c([C@H]3CCCO3)c2[nH]1 [Form C, (R)-2-(5-(2-(3-ethylureido)-6-fluoro-7-(tetrahydrofuran-2-yl)-1H-benzo[d]imidazol-5-yl)pyrimidin-2-yl)propan-2-yl dihydrogen phosphate]
MIC [7, 13]: 4 µg/mL
Net % increase in total impurities ([9]; 17 days, listed as C): 0.18%
MIC (Haemophilus influenzae; read-out: MIC): 0.25 µg/mL
MIC (Escherichia coli AG100; Escherichia coli AG100 WT): >16 µg/mL and >8 µg/mL
MIC ([10]; Staphylococcus aureus ATCC 29213 GyrB T173I): >16 µg/mL
MIC [10, 14]: 1 µg/mL and 2 µg/mL
MIC ([10]; Staphylococcus aureus, ATCC29213, Staphylococcus aureus ATCC 29213, read-out: MIC): 4 µg/mL
MIC [11]: 2 µg/mL
Ki (E. coli DNA Topo IV): < 6 nM
Ki (S. aureus DNA gyrase): 27 nM
